In ChEMBL document CHEMBL4619775, “2-Arylbenzo[d]oxazole Phosphinate Esters as Second-Generation Modulators of Utrophin for the Treatment of Duchenne Muscular Dystrophy” (J Med Chem, 2020):
pEC50: −log10 of the molar value. Values after ≈ are worked out from the molar mass of the structure shown. Blank lines part the entries; values can stand above or below the compound they belong to. Active and inactive are the calls of the source. The rule behind the calls is not given here.

Experiments:
[1] = Intrinsic clearance in mouse hepatocytes assessed per 10^6 cells
[2] = Stability in mouse hepatocytes assessed as half life
[3] = Apparent permeability from apical to basolateral side in human Caco2; conditions: Caco-2
[4] = Apparent permeability from basolateral to apical side in human Caco2; conditions: Caco-2
[5] = Solubility of compound by turbidimetric assay
[6] = Plasma protein binding in mouse
[7] = Plasma protein binding in human
[8] = Microsomal stability in mouse liver microsomes assessed as half life
[9] = Microsomal stability in human liver microsomes assessed as half life
[10] = Intrinsic clearance in mouse liver microsomes
[11] = Intrinsic clearance in human liver microsomes
[12] = Drug level in rat treated with methyl ethyl(2-(3-(trifluoromethyl)phenyl)benzo[d]oxazol-5-yl)phosphinate assessed as compound formation; format: ADME; conditions: in vivo
[13] = Aqueous kinetic solubility of the compound; conditions: buffer
Mus musculus [14] = species on record: Mus musculus; assay: Upregulation of utrophin expression in dystrophin-deficient mouse myoblasts at 10 uM after 72 hrs by Western blot analysis; format: functional
[15] = Volume of distribution in mdx mouse at 1 mg/kg, iv; conditions: in vivo
Mus musculus [16] = assay: Protection against DMD in mdx C57BL/10 mouse assessed as force drop in extensor digitorum longus muscle at 30 mg/kg, po qd for 5 weeks measured post-last dose (reference value: 44.9%); format: functional
Mus musculus [17] = assay: Protection against stretch-induced damage in mdx C57BL/10 mouse assessed as improvement in muscle resistance at 30 mg/kg, po qd for 5 weeks; format: functional
[18] = Half life in mdx mouse at 5 mg/kg, po after 1 day; conditions: in vivo, t1/2
[19] = Drug metabolism in mouse hepatocytes assessed as interconversion to opposite enantiomeric form after 60 mins; conditions: 1 h
[20] = Drug metabolism in human hepatocytes assessed as interconversion to opposite enantiomeric form after 60 mins; conditions: 1 h
[21] = mouse, in vivo, po, 5 mg/kg, 24 h
[22] = mouse, in vivo, po, 5 mg/kg, 168 h
[23] = mouse, in vivo, iv, 1 mg/kg
[24] = mouse, in vivo, po, 5 mg/kg, 24 h; remark: listed apart in the source
[25] = mouse, in vivo, po, 5 mg/kg, 168 h; remark: listed apart in the source
[26] = mouse, in vivo, po, 5 mg/kg, 24 h; remark: listed apart in the source
in vivo [27] = conditions: mdx, mouse, iv, 1 mg/kg
in vivo [28] = conditions: mdx, mouse, po, 5 mg/kg, F
Mus musculus [29] = species on record: Mus musculus; assay: Upregulation of utrophin expression in dystrophin-deficient mouse myoblasts after 72 hrs by Western blot analysis; format: functional
[30] = molecular target: 5-hydroxytryptamine receptor 2B (Homo sapiens, UniProt P41595); assay: Antagonist activity at human Gq-coupled 5HT2B receptor expressed in HEK293 cells assessed as inhibition of serotonin-induced calcium mobilization by calcium-sensitive dye based FLIPR assay; format: functional, cell-based
[31] = mouse, in vivo, po, 5 mg/kg, 168 h; remark: listed apart in the source
[32] = Stability in human hepatocytes assessed as half life after 60 mins
[33] = Drug metabolism in mouse hepatocytes assessed as compound racemization after 60 mins; conditions: 1 h
[34] = Drug metabolism in human hepatocytes assessed as compound racemization after 60 mins; conditions: 1 h
[35] = mouse, in vivo, iv, 1 mg/kg; remark: listed apart in the source
[36] = Intrinsic clearance in mouse hepatocytes after 60 mins; conditions: 1 h
[37] = Intrinsic clearance in human hepatocytes after 60 mins; conditions: 1 h
[38] = Stability in mouse hepatocytes assessed as half life after 60 mins

Chain of 5-hydroxytryptamine receptor 2B (P41595 whole entry): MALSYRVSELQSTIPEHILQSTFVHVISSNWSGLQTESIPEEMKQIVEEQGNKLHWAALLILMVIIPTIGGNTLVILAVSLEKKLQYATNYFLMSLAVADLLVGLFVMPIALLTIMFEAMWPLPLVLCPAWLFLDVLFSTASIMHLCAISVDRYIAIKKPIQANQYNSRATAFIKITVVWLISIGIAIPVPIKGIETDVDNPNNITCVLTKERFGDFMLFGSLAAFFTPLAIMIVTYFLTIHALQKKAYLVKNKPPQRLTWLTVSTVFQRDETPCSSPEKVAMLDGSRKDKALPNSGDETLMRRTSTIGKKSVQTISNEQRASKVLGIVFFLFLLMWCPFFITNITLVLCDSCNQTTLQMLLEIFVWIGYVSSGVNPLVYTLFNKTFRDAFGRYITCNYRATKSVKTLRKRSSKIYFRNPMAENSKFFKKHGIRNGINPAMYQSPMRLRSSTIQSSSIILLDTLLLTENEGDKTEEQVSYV

Structure (SMILES): O=S1(=O)CCCN1c1ccc2oc(-c3ccc4ccccc4c3)nc2c1
solubility kinetic [5]: 3 to 10 µM (≈ 1.09 to 3.64 µg/mL)

Structure (SMILES): CC(C)C(=O)Nc1ccc2oc(-c3ccc4ccccc4c3)nc2c1
solubility kinetic [5]: 1 to 3 µM (≈ 0.33 to 0.991 µg/mL)

Structure (SMILES): CC(=O)Nc1ccc2oc(-c3ccc4ccccc4c3)nc2c1
solubility kinetic [5]: 3 to 10 µM (≈ 0.907 to 3.02 µg/mL)

Structure (SMILES): CCP(=O)(OC)c1ccc2nc(-c3ccc(F)cc3)oc2c1 (configuration not stated)
Activity (Mus musculus [14]): inactive

Structure (SMILES): CCP(=O)(OC)c1ccc2oc(-c3ccc(F)cc3)nc2c1 (racemic) [listing 1 of 2 here]
solubility kinetic [5]: > 100 µM
PPB [6]: 75%
fraction unbound ([7]; PPB): 0.12
half-life ([8]; microsomes): 1.43 h
half-life ([9]; microsomes): 6.38 h
Vd ([15]; mdx, Vd): 1.46 L/kg
Activity (Mus musculus [16]): 31.8%
Activity (Mus musculus [17]): 29%
half-life at 24 h [18]: 2.25 h
Drug metabolism [19]: < 1%
Drug metabolism [20]: < 1%
Cmax [21]: 734 ng/mL
Cmax [22]: 566 ng/mL
AUC [23]: 431 ng·h/mL
AUC [24]: 1660 ng·h/mL
AUC [25]: 1160 ng·h/mL
F [26]: 77.2%
Cmax (in vivo [27]): 562 ng/mL
bioavailability at 168 h (in vivo [28]): 53.7%

Structure (SMILES): CCP(=O)(OC)c1ccc2oc(-c3ccc(F)cc3)nc2c1 (racemic) [listing 2 of 2 here]
Activity (Mus musculus [29]): Dose-dependent effect

Structure (SMILES): CCP(=O)(OC)c1ccc2oc(-c3cccc(C(F)(F)F)c3)nc2c1 (racemic)
Activity (Mus musculus [29]): Dose-dependent effect

Structure (SMILES): CCP(=O)(OC)c1ccc2oc(-c3ccc(F)cc3)nc2c1 (single isomer, unassigned; (+))
pEC50 [30]: 5.03
PPB [6]: 80%
Activity (Mus musculus [16]): 29.4%
Activity (Mus musculus [17]): 35%
Cmax [21]: 542 ng/mL
Cmax [22]: 736 ng/mL
AUC [23]: 510 ng·h/mL
AUC [24]: 1570 ng·h/mL
AUC [25]: 1620 ng·h/mL
F [31]: 63.7%
F [26]: 61.6%

Structure (SMILES): CCP(=O)(OC)c1ccc2oc(-c3ccc(F)cc3)nc2c1 (single isomer, unassigned; (-))
pEC50 [30]: 4.30
PPB [6]: 77%
PPB [7]: 85%
half-life at 1 h [32]: > 7.67 h
Vd [15]: 1.58 L/kg
Activity (Mus musculus [16]): 44.4%
Drug metabolism [33]: Metabolite_Notdetected
Drug metabolism [34]: Metabolite_Notdetected
Cmax [35]: 477 ng/mL
Cmax [21]: 352 ng/mL
Cmax [22]: 299 ng/mL
AUC [23]: 226 ng·h/mL
AUC [24]: 444 ng·h/mL
AUC [25]: 513 ng·h/mL
F [31]: 45.4%
F [26]: 39.4%

More lines, now with the values ahead:

hepatocyte CLint [1]: 32.8 µL/min/1e6 cells
half-life [2]: 0.35 h
Papp A→B [3]: 6.38 ×10⁻⁶ cm/s
Papp B→A [4]: 3.98 ×10⁻⁶ cm/s
Structure (SMILES): CCP(=O)(OC1CCC1)c1ccc2oc(-c3cccc(C(F)(F)F)c3)nc2c1 (configuration not stated)

solubility kinetic [5]: > 100 µM
fraction unbound [6]: 0.17
fraction unbound [7]: 0.04
half-life ([8]; liver microsomes): 0.45 h
half-life ([9]; liver microsomes): > 17.1 h
Structure (SMILES): COP(=O)(c1ccc2nc(-c3ccc(F)cc3)oc2c1)C(C)C (configuration not stated)

solubility kinetic [5]: > 100 µM
fraction unbound [6]: 0.16
fraction unbound [7]: 0.08
microsomal CLint ([10]; liver microsomes): 39.1 µL/min/mg
half-life ([8]; liver microsomes): 0.6 h
microsomal CLint ([11]; liver microsomes): 2.41 µL/min/mg
half-life ([9]; liver microsomes): 9.58 h
Structure (SMILES): CCOP(=O)(CC)c1ccc2oc(-c3ccc(F)cc3)nc2c1 (configuration not stated)

fraction unbound [7]: 0.01
Drug uptake [12]: Active
hepatocyte CLint [1]: < 2.89 µL/min/1e6 cells
half-life [2]: 4 h
solubility kinetic [13]: 337 µM (≈ 120 µg/mL)
Structure (SMILES): CCP(=O)(O)c1ccc2oc(-c3cccc(C(F)(F)F)c3)nc2c1

hepatocyte CLint [1]: 8.65 µL/min/1e6 cells
half-life [2]: 1.33 h
Papp A→B [3]: 10.6 ×10⁻⁶ cm/s
Papp B→A [4]: 5.75 ×10⁻⁶ cm/s
Structure (SMILES): CCP(=O)(OC1CC1)c1ccc2oc(-c3cccc(C(F)(F)F)c3)nc2c1 (configuration not stated)

fraction unbound [6]: 0.01
hepatocyte CLint [1]: 8.92 µL/min/1e6 cells
half-life [2]: 1.3 h
solubility kinetic [13]: 652 µM (≈ 258 µg/mL)
Structure (SMILES): CCP(=O)(OC1CC1)c1ccc2nc(-c3cccc(C(F)(F)F)c3)oc2c1 (configuration not stated)

solubility kinetic [5]: > 100 µM
fraction unbound [6]: 0.23
fraction unbound [7]: 0.1
half-life ([8]; liver microsomes): > 73.3 h
Structure (SMILES): CCP(=O)(OC)c1ccc2nc(-c3cnc4ccccc4c3)oc2c1 (configuration not stated)

solubility kinetic [5]: 3 to 10 µM (≈ 1.01 to 3.37 µg/mL)
fraction unbound [6]: < 0.01
microsomal CLint ([10]; microsomes): 21 µL/min/mg
half-life ([8]; microsomes): 1.1 h
microsomal CLint ([11]; microsomes): 14.4 µL/min/mg
half-life ([9]; microsomes): 1.6 h
CLH [36]: 54 µL/min
CLH [37]: 31 µL/min
half-life at 1 h [38]: 0.433 h
half-life at 1 h [32]: 0.75 h
Drug metabolism [33]: Metabolite_Notdetected
Drug metabolism [34]: Metabolite_Notdetected
Structure (SMILES): CCS(=O)(=O)c1ccc2oc(-c3ccc4ccccc4c3)nc2c1 [EZUTROMID]
